Test results as given in patent publication US20070173456A1, “PREPTIN FRAGMENTS AND METHODS OF USE” (Auckland UniServices Limited, priority 2005, published 2007).

Key:
rat osteoblasts = experiment: Osteoblast proliferation, [3H]-thymidine incorporation; type: cell-based; conditions: versus vehicle control; for proliferation of rat osteoblasts, as measured by thymidine incorporation (FIG. 1): primary fetal rat calvarial osteoblasts, peptide 1×10^−9 M, 20-24 hours; for proliferation of rat osteoblasts, as measured by thymidine incorporation, parallel comparison (FIG. 4): various concentrations, compared in parallel
Description: Osteoblasts were isolated from 20 day fetal rat calvariae as previously described (Cornish et al., American Journal of Physiology—Endocrinology & Metabolism 277: E779-E783, 1999). Briefly, calvariae were dissected aseptically and the frontal and parietal bones are stripped of their periosteum. Only the central portions of the bones, free from suture tissue, were collected. The calvariae were treated twice with phosphate buffered saline (PBS) containing 3 mM EDTA (pH 7.4) for 15 minutes at 37° C. in a shaking water bath. Calvariae were washed once in PBS and treated twice with 3 ml of collagenase (1 mg/ml) for 7 minutes at 37° C. After discarding supernatants from the first two collagenase digestions, calvariae were treated twice with 3 ml collagenase (2 mg/ml) for 30 minutes at 37° C. The supernatants from these third and fourth collagenase digestions were collected, pooled and centrifuged. The pelleted cells were washed in Dulbecco's modified Eagle's medium (DME) with 10% fetal calf serum (FCS), resuspended in DME/10% FCS, and placed in 75 cm^2 flasks. Cells were incubated under 5% CO2 and 95% air at 37° C. Cells were grown to confluence (approximately 5-6 days) and then subcultured.
To set up subcultures, cells were trypsinized in trypsin-EDTA (0.05%/0.53 mM), rinsed in minimal essential medium (MEM) with 5% FCS, resuspended in fresh medium, and seeded at 5×10^4 cells/ml in 24-well plates (0.5 ml cell suspension per well, i.e., 1.4×10^4 cells/cm^2).
To evaluate the proliferative responses of osteoblast cultures in the presence of preptin and various fragments of preptin, subconfluent cell cultures were growth arrested by incubation in MEM/0.1% bovine serum albumin 24 hours prior to addition of test compounds. Cells were cultured in the presence of full-length preptin (preptin 1-34), preptin 1-19, preptin 20-34, or in the absence of preptin compounds (control). Preptin compounds were added to a final concentration of 1×10^−9 M. A pulse of [^3H]-thymidine (1 […]) was added to each sample two hours prior to the end of each experimental incubation. The incubations were terminated 20-24 hours after addition of preptin compounds by washing the cells in MEM containing non-radioactive thymidine, followed by the addition of 10% trichloroacetic acid. The precipitate was washed twice either ethanol:ether (3:1) and the wells were desiccated at room temperature. The residue in each well was redissolved in 2 M KOH at 55° C. for 30 minutes, neutralized with 1 M HCl, and an aliquot was removed to quantitate incorporation of radioactivity in the samples. The results are depicted in FIG. 1. […] The results are representative of at least four independent assays.

[1] = test system: isolated, perfused rat pancreas; conditions: infusion into isolated, Buchanan et al. 2001; cited from earlier work

| Substance | proliferation of rat osteoblasts, as measured by thymidine incorporation (FIG. 1) (rat osteoblasts) | proliferation of rat osteoblasts, as measured by thymidine incorporation, parallel comparison (FIG. 4) (rat osteoblasts) | insulin secretion [1] |
| --- | --- | --- | --- |
| preptin 20-34: a C-terminal fragment of preptin (KFFQYDTWKQSTQRL; Preptin; UniProt P01344 112-126, looked up, fragment) [reference compound] | No enhancement of osteoblast proliferation was observed | did not stimulate a significant increase in proliferation at any of the concentrations tested |  |
| Asp Val Ser Thr R1 R2 R3 Val Leu Pro Asp R4 Phe Pro Arg Tyr Pro Val Gly Lys Phe Phe R5 R6 Asp Thr Trp R7 Gln Ser R8 Rg Arg Leu [preptin 1-34, reference compound] | stimulated |  | significant increase in the second phase of secretion |
| Asp Val Ser Thr R1 R2 R3 Val Leu Pro Asp R4 Phe Pro Arg Tyr Pro Val Gly [preptin 1-19] | enhances osteoblast proliferation in vitro, to levels comparable to those stimulated by full-length preptin | significant increase in proliferation at 1×10^−9M |  |
